Where a name gives a salt, the structure may show the parent alone. Read-outs that look alike come from different tables or passages of the source.
How the values were obtained:
[1] = system: P450 enzymes in rat liver; experiment: P450 enzyme induction; assay type: in vitro ADME
[2] = system: HT-29 cells; experiment: CellTiter-Glo luminescent cell viability assay; assay type: cell-based; conditions: Homo sapiens, 72 h; HT-29, BRAF V600E, 3-day exposure, N=2; read-out: Compound 1 EC50 (mean ± SD)
Experimental: (§1) A375, Sk-Mel-28, HT29, Colo205, A431, and HCC827 cell lines were purchased from American Type Culture Collection. All the cell lines used in the cellular assays were cultured in the designated medium supplemented with 10% fetal bovine serum (FBS, Thermo Scientific), 100 units/mL penicillin (Gibco), 0.1 mg/mL streptomycin (Gibco) and in a humidified 37° C. environment with 5% CO2. Cell lines were reinstated from frozen stocks laid down within three passages from the original cells purchased and passaged no more than 30 times.
(§2) The growth-inhibitory activity of compounds in a panel of melanoma, colon, breast and lung cancer cells was determined using CellTiter-Glo luminescent cell viability assay (Promega). The number of cells seeded per well of a 96-well plate was optimized for each cell line to ensure logarithmic growth over the 3 days treatment period. Cells were left to attach for 16 hours and then treated with a 10-point dilution series in duplicate. Following a 3-day exposure to the compound, a volume of CellTiter-Glo reagent equal to the volume of cell culture medium present in each well was added. Mixture was placed on an orbital shaker for 2 minutes to allow cell lysing, followed by 10 minutes incubation at room temperature to allow development and stabilization of luminescent signal. Luminescent signal was measured using PHERAstar FS reader (BMG Labtech). EC50 values for cell viability were determined with GraphPad Prism software.

[3] = system: A375 cells; experiment: CellTiter-Glo luminescent cell viability assay; assay type: cell-based; conditions: Homo sapiens, A-375, 72 h; A375, BRAF V600E, 3-day exposure, N=2; read-out: Compound 1 EC50 (mean ± SD)
Experimental: as §1, §2

[4] = system: Sk-Mel-28 cells; experiment: CellTiter-Glo luminescent cell viability assay; assay type: cell-based; conditions: Homo sapiens, 72 h; Sk-Mel-28, BRAF V600E, 3-day exposure, N=2; read-out: Compound 1 EC50 (mean ± SD)
Experimental: as §1, §2

[5] = system: Colo-205 cells; experiment: CellTiter-Glo luminescent cell viability assay; assay type: cell-based; conditions: Homo sapiens, 72 h; Colo-205, BRAF V600E, 3-day exposure, N=2; read-out: Compound 1 EC50 (mean ± SD)
Experimental: as §1, §2

[6] = pharmacokinetic comparison of sesqui-maleate and free base, oral; assay type: in vivo, Beagle dogs; conditions: dogs
Text: Drugs and reagents: Crystalline Form A* of Compound 1 Sesqui-Maleate with particle sizes of D90=4.1 um, D10=1.5 um, D50=2.4 um after micronization. The material content (purity) was not less than 98.0%.
Experiment animals: Beagle dogs, male and female.
Pharmaceutical preparation: Weigh the appropriate amount of each substance and disperse in 0.5% sodium carboxymethyl cellulose (for the free base of Compound 1) or 0.5% methyl cellulose solution (for Compound 1 Sesqui-Maleate). Prepare a suspension at the desired concentration of Compound 1. All the doses and concentrations of Compound 1 were calculated with free base in this study.
Administration and sample collection: The dosing solutions will be freshly prepared prior to dose administration. The actual body weights and actual volume injected will be recorded accordingly. The dogs were fasted overnight and were allowed to intake food four hours after dosing. Each suspension was administrated orally to dogs at a dose ranged from 0.5 to 15 mg/kg. Blood samples (˜1.0 mL) will be collected at pre-dose and at different times up to 36 hours postdosing via cephalic vein plexus. Whole blood will be processed by centrifugation and plasma samples will be collected and kept at freezer prior to analysis. Plasma samples were processed by protein precipitation. Concentrations of Compound 1 in the plasma samples were determined using a validated liquid chromatography-tandem mass spectrometry (LC-MS/MS) method. The plasma concentration-time data were analyzed using a non-compartmental model using Pharsight WinNonlin.

[7] = Raf kinase enzymatic assay (HTRF)
[8] = system: p-ERK in Calu-6 K-RAS mutant non-small cell lung adenocarcinoma xenograft models; experiment: PD study, p-ERK in tumor tissue, combination; assay type: in vivo, mice; conditions: Calu-6 xenograft, with MEK inhibitor AZD6244
Experimental: Human cancer cells were inoculated subcutaneously in the right axilla region of BALB/C nude mice to generate tumor xenografts. On the day of implantation, the cell culture medium was replaced with fresh medium. Three hours later, the media was removed and the cells were collected and re-suspended in cold (4° C.) PBS prior to inoculation. The right axilla region of each mouse was cleaned with 70% ethanol prior to cell inoculation. Each animal was injected subcutaneously with desired cells in 200 μl of cell suspension in the right front flank via a 26-gauge needle. After implantation tumor volumes were measured twice weekly in two dimensions using a calliper. Tumor volume was calculated using the formula: V=0.5×(a×b^2) where a and b are the long and short diameters of the tumor, respectively.
For PD study, when the average tumor size reaches 140-900 mm^3, animals were assigned into desired number of groups with 4 mice per group using a stratified randomization procedure. The groups consisted of a control group (no drug treatment), and different dose levels of Crystalline Form A* of Compound 1 Sesqui-Maleate treatment groups (ranged from 1-20 mg/kg). All doses were based on free-base weight. Drugs were administered by oral gavage once (qd) or twice (bid) daily. […] Body weight was assessed immediately before dosing and the volume dosed was adjusted accordingly. […]

[9] = pharmacokinetic study (LC-MS/MS); assay type: in vivo, beagle dogs; conditions: dogs
Text: The fully-validated LC-MS/MS method was well used for the pharmacokinetic (PK) studies of Crystalline Form A* of Compound 1 Sesqui-Maleate in Sprague-Dawley rats and beagle dogs following single- and multiple-dose administrations.

[10] = oral dose 1 mg/kg (free base), listed as Sesqui-Maleate (Micronized Crystalline Form A*), sesqui-maleate salt, 1 mg/kg

SMILES: O=C1CCc2c(Oc3ccc4c(c3)[C@@H]3[C@H](O4)[C@H]3c3nc4ccc(C(F)(F)F)cc4[nH]3)ccnc2N1 [5-(((1R,1aS,6bR)-1-(6-(trifluoromethyl)-1H-benzo[d]imidazol-2-yl)-1a,6b-dihydro-1H-cyclopropa[b]benzofuran-5-yl)oxy)-3,4-dihydro-1,8-naphthyridin-2(1H)-one sesqui-maleate salt]
- induction effect on P450 enzymes [1]: No significant induction effect
- EC50 [2]: 138 ± 13 nM
- EC50 [3]: 137 ± 0.5 nM
- EC50 [4]: 251 ± 54 nM
- EC50 [5]: 147 ± 0.6 nM
- Cmax ([6]; both sexes, beagle, dog, plasma, po, 0.5 mg/kg, oral dose 0.5 mg/kg, read-out: Cmax): 342 ng/mL
- Cmax ([6]; both sexes, beagle, dog, plasma, po, 1.5 mg/kg, oral dose 1.5 mg/kg, read-out: Cmax): 861 ng/mL
- Cmax ([6]; both sexes, beagle, dog, plasma, po, 4.5 mg/kg, oral dose 4.5 mg/kg, read-out: Cmax): 2880 ng/mL
- Cmax ([6]; both sexes, beagle, dog, plasma, po, 15 mg/kg, oral dose 15 mg/kg, read-out: Cmax): 5310 ng/mL
- AUC0-inf relative to the free base form ([6]; oral): 2-3 times
- Cmax relative to the free base form ([6]; oral): 2-3 times
- Dose-Normalized AUC0-inf ([6]; oral dose 0.5 mg/kg): 4178 ng·kg·h/mL/mg
- Cmax [6, 10]: 607 ng/mL
- Dose-Normalized AUC0-inf [6, 10]: 2960 ng·kg·h/mL/mg
- Dose-Normalized AUC0-inf ([6]; oral dose 1.5 mg/kg): 3726 ng·kg·h/mL/mg
- Dose-Normalized AUC0-inf ([6]; oral dose 4.5 mg/kg): 4390 ng·kg·h/mL/mg
- Dose-Normalized AUC0-inf ([6]; oral dose 15 mg/kg): 2841 ng·kg·h/mL/mg
- IC50 ([7]; BRAF V600E (416-766), ATP at KM): 26 nM
- enzyme inhibition ([7]; V600E mutant B-RAF): potent and reversible inhibitor
- effect on inhibiting p-ERK in combination [8]: strong synergistic effect
- bioavailability ([9]; beagle, dog, in vivo, po): 41 to 82%
- half-life ([9]; beagle, dog, in vivo, after oral administration, read-out: elimination half-life): 3.3 to 4.9 h
- accumulation after multiple dosing [9]: No accumulation
- kinetics over dose range ([9]; 1.5 to 15 mg/kg): linear

— patent US10351559B2, “Maleate salts of a B-RAF kinase inhibitor, crystalline forms, methods of preparation, and uses therefore” (BeiGene, Ltd., priority 2015, dated 2019)
